Assay results as given in article PMC5764437, “Discovery of novel, orally bioavailable, antileishmanial compounds using phenotypic screening” (PLoS Neglected Tropical Diseases, 2017).
Entries after “also recorded” stand apart in the source; their conditions may differ.

Tests used:
[1] = Liver microsomal stability, human; settings: both, liver microsomes, pH 7.4
Experimental: (§1) One part of 10 mM DMSO compound stock was mixed with 4 parts of acetonitrile to make 2 mM diluted compound stock in DMSO and acetonitrile. 29.1 µL diluted compound stock was added to 2.3 mL liver microsomal solution and vortexed to make microsomal solution with compound. […] For the 0 h time point, 450 µL pre-cooled (4 °C) internal standard (10 µM warfarin in methanol) was added to the first three columns before the reaction was initiated. 1.25 ml of microsome assay solution A (Fisher Scientific, #NC9255727) was combined with 0.25 ml of solution B (Fisher Scientific, #NC9016235) in 3.5 ml of potassium phosphate buffer (0.1 M, pH 7.4). 45 µL of this A+B solution was added to each well of the 96-well storage plate (reaction plate). Liquid in the first 3 columns was moved to another storage plate (quenched plate). The reaction plate was then sealed, incubated at 37 °C, and shaken at a speed of 60 rpm. Time points (0.5 h, 1 h, 2 h) were taken. At each time point, 450 µL pre-cooled internal standard was added to 3 rows in the reaction plate, and the liquid was then transferred to the quenched plate. […] 200 µL supernatant was transferred to a 96-well plate and analyzed by ultra-performance liquid chromatography-mass spectrometry (UPLC-MS) (Waters Inc.). The compounds and internal standard were detected by selected ion recording (SIR).

J774A.1 macrophages = test: Cytotoxicity to J774A.1 macrophages (dose-response); type: cell-based; settings: for EC50: Mus musculus, J774.A1, host macrophage, tested up to 10 μM, mean ± standard deviation, n = 2, read-out: J774A.1 EC50
Experimental: Cytotoxicity of compounds to J774.A1 macrophages was determined by dose-response curves as described previously. In the absence of growth inhibitors or DMSO, the macrophages increased in number ~6-fold over 96 h in Minimum Essential Medium, employed for both macrophage infections and the toxicity assays.

[2] = tested on: L. donovani intracellular amastigotes; test: Growth inhibition of intracellular amastigotes in J774A.1 macrophages (Renilla luciferase luminescence); type: cell-based; settings: Leishmania donovani, J774.A1; intracellular amastigotes in J774A.1 macrophages; mean ± standard deviation, n = 2; read-out: L. donovani EC50
Experimental: L. mexicana (MNYZ/BZ/62/M379) or L. donovani (LdBob strain) parasites expressing the Renilla luciferase gene from a rRNA gene locus were used to infect J774A.1 macrophages. Growth of intracellular amastigotes was measured using a luminescence assay, as detailed previously. The growth inhibitor activities of compounds were tested against bloodstream form Lister 427 T. brucei in 96-well plates containing 1 X 10^5 parasites per well in 0.2 ml HMI-11 medium (Gibco/Thermo Fisher). Compounds (2 μl volumes in DMSO) were added to the parasites using serial 3-fold dilutions to cover a range of concentrations from about 10 μM to 1 nM. After 48 h incubation at 37°C under a humidified 5% CO2 atmosphere, 10 μl of 10% Triton X-100 and 100 X stock SYBR Green I (Sigma-Aldrich) in PBS was added and florescence measured (excitation 497 nm; emission 520 nm) after 1 h incubation in the dark using a Spectra Max Gemini XPS fluorimeter (Molecular Devices). Data were log transformed and EC50 values were determined using GraphPad Prism 6 (GraphPad Software). In the absence of growth inhibiting compounds, the parasites grew from an initial density of 5 X 10^5 cells/mL to ~3 X 10^6 cells/mL.

[3] = Liver microsomal stability, rat; settings: liver microsomes, pH 7.4
Experimental: as §1

L. mexicana = test: Efficacy in murine model of cutaneous leishmaniasis (footpad lesion size); type: in vivo; settings: BALB/c mice infected with L. mexicana, measured weeks 4–12
Experimental: Female BALB/c mice (~20 g) were injected in one hind footpad with 1 x 10^6 stationary phase promastigotes suspended in 25 μl of phosphate buffered saline (PBS). Four weeks after infection, when a small cutaneous lesion was visible in the injected footpad, cohorts of five mice were treated with either compound or vehicle alone (90 μl), delivered daily for 10 consecutive days by oral gavage using a 20-gauge x 30 mm disposable plastic feeding needle. Vehicle consisted of 10/10/40/39 mixture of ethanol/(PG)/PEG400/PBS plus 1% (weight/volume) 2HβCD (PG is propylene glycol, PEG is polyethylene glycol, 2HβCD is 2-hydroxy-β-cyclodextran). The daily dose for each compound was: compound 4, 25 mg/kg; compound 5, 30 mg/kg; miltefosine, 20 mg/kg. The width of the footpad (top to bottom) was measured with calipers before injection of parasites (day 0) and weekly from weeks 4–12. The width of the uninfected contralateral footpad was also measured each week, and its width was subtracted from that of the infected footpad to determine lesion size.

[4] = Stability in simulated gastric fluid; settings: simulated gastric fluid with pepsin, pH 1
Experimental: Compound stocks were 10 mM in DMSO. The internal standard was 5 µM warfarin in methanol. […] 1 ml SGF was added to a 1.1 ml 96-well storage plate and mixed well with 10 µl compound stock. The plate was then incubated at 37 °C and shaken at 60 rpm. […] At each time point, 100 µl was removed to a 1 ml storage plate and 300 µl internal standard was added to quench the reaction. […] The compound was detected by SIR and quantification was based on peak area of test compound and the internal standard.

[5] = tested on: Trypanosoma cruzi CL Brener epimastigotes; test: Growth inhibition of Trypanosoma cruzi epimastigotes (SYBR Green); type: cell-based; settings: 72 h, 10 μM to 1 nM
Experimental: Trypanosoma cruzi CL Brener epimastigotes were obtained from Dr. Fred Buckner of the Department of Medicine at the University of Washington. T. cruzi epimastigotes were grown in liver infusion tryptose medium and seeded in a 96-well plate at 10^5 epimastigotes per well in 100 μl medium. For each well, 1 μl of compound in DMSO at 100X the desired final concentration was added. Epimastigotes were exposed to a range of compound concentrations from 10 μM to 1 nM to determine EC50. Plates were incubated at 26°C for 72 h, then 10 μl 50X SYBR Green in 1% Triton X-100 was added to each well followed by incubation with shaking at room temperature for 30 minutes. Fluorescence was read (excitation 485nm, emission 535nm) with the Victor^2 multiplate reader (PerkinElmer). All data processing and visualization were performed using GraphPad Prism 6 software.

[6] = Caco-2 permeability assay; type: in vitro ADME; settings: human, pH 7.4; for Papp A→B at 2 h, 10 μmol/L / Papp B→A at 2 h, 10 μmol/L: Caco-2, mean ± standard deviation of three runs; for Papp A→B at 2 h, 10 μmol/L: read-out: Caco-2 (A→B) permeability coefficient; for Papp B→A at 2 h, 10 μmol/L: read-out: Caco-2 (B→A) permeability coefficient

## COc1ccc(-c2c(C(F)(F)F)oc3c(CN4CCN(C)CC4)c(O)ccc3c2=O)cc1OC [Compound 4]
[1]
  half-life at 20 μM: > 4 h
J774A.1 macrophages
  EC50: > 10 µM
J774A.1 macrophages; up to 10 μM
  Reduction in viability / inhibition of host macrophage J774A.1 in dose-response studies: no reduction in viability; also recorded: no inhibition of J774A.1 macrophages up to 10 μM concentration
[2]
  EC50: 0.6 ± 0.5 µM
[3]
  half-life at 20 μM: > 4 h
L. mexicana; 25 mg/kg daily oral gavage for 10 days from week 4
  Cutaneous lesion size (footpad width): controlled lesion size at dimensions similar to that at the time of compound dosing (4 weeks) until week 9
[4]
  half-life at 99 µM: > 48 h
[5]
  T. cruzi epimastigotes EC50: no inhibition
[6]
  Papp A→B at 2 h, 10 μmol/L: 49 ± 0.3 ×10⁻⁶ cm/s
  Papp B→A at 2 h, 10 μmol/L: 39 ± 0.7 ×10⁻⁶ cm/s

## Cc1ccc(-c2nc3ccccc3s2)cc1NC(=O)c1cc([N+](=O)[O-])c(N2CCN(C)CC2)cc1Cl [Compound 5]
[1]
  half-life at 20 μM: > 4 h
J774A.1 macrophages
  EC50: 1.1 ± 0.8 µM
[2]
  EC50: 0.029 ± 0.027 µM
[3]
  half-life at 20 μM: > 4 h
L. mexicana; 30 mg/kg daily oral gavage for 10 days from week 4
  Cutaneous lesion size (footpad width): controlled lesion size at dimensions similar to that at the time of compound dosing (4 weeks) until week 9
[4]
  half-life at 99 µM: > 24 h
[5]; Trypanosoma cruzi, read-out: T. cruzi epimastigotes EC50
  EC50: 0.086 ± 0.03 µM
[6]; Caco-2, pH 7.4, Papp B→A / Papp A→B
  efflux ratio at 2 h, 10 μmol/L: 1.92
[6]
  Papp A→B at 2 h, 10 μmol/L: 16.8 ± 2.4 ×10⁻⁶ cm/s
  Papp B→A at 2 h, 10 μmol/L: 32.2 ± 2.9 ×10⁻⁶ cm/s
